From patent US20060039887A1, “Cosmetic or pharmaceutical composition for skin care” (Infinity2 Health Sciences, Inc., priority 2004, published 2006)

Assays:
[1] = pH of 1 wt % solution in water; format: physicochemical; conditions: 1 wt % (1%) water solution
[2] = stability of water solution; format: physicochemical
[3] = from water solutions
[4] = Stability of Cu-ATP solution, Hunter Lab L*a*b* color readings; format: physicochemical; set-up: key to color reading "L": L* lightness: 100 = white to 0 = black; key to color reading "a": a*: negative = greener, positive = redder; key to color reading "b": b*: negative = bluer, positive = yellower; conditions: full light, ambient room temperature
Source text: It should be noted that, where relevant, composition ingredients and the like are provided in weight percentages. Further, where applicable, color measurements were done on a Hunter Lab color meter. This color meter measures color on a scale defined as L*a*b* scale. The term “L” is from 100 to 0, representing white and black colors (lightness and darkness), respectively. A (−) value of “a” indicates a more green color. A (+) value of “a” indicates a more red color. A (−) value of “b” indicates a more blue color. A (+) value of “b” indicates a more yellow color. Various numeric values of “a” and “b” indicate degree of respective colors. Mixed colors are thus indicated by a mixed value of L*a*b* as will be noted in various examples below. The materials used had the following properties. Adenosine triphosphate disodium hydrate (molecular weight 551 Da), glutathione (molecular weight 307 Da), copper gluconate (molecular weight 453 Da, Cu=14%), copper amino acid chelate (copper 12%), fructose-1,6-diphosphate dicalcium (molecular weight 416 Da), zinc gluconate (molecular weight 455 Da, Zn=1 4%), manganese gluconate (molecular weight 445 Da, Mn=12%). The analysis of trace metals quoted in ppm in various examples, as noted below, are within +-10%.
The solution “C” obtained in Example 2 was stored in a beaker with a plastic film wrapped over it. The solution was stored in full light (fluorescent lamps) under ambient room temperature conditions. The color readings were measured periodically, and any visually observed discolorations, or precipitate formations, if any, were also recorded, as noted below.

Molecule: Nc1ncnc2c1ncn2[C@@H]1O[C@H](COP(=O)(O)OP(=O)(O)OP(=O)(O)O)[C@@H](O)[C@H]1O [ATP, adenosine triphosphate]
- pH of 1 wt % solution in water [1]: 2.0

Molecule: NC(=O)c1cccnc1.O=C1O[C@H]([C@@H](O)CO)C(O)=C1O [Niacinamide ascorbate]
- pH of 1 wt % solution in water [1]: 3.7
- stability of water solution [2]: good
- absorption into skin [3]: rapidly absorbed

Molecule: O=C1O[C@H]([C@@H](O)CO)C(O)=C1O [ascorbic acid]
- pH of 1 wt % solution in water [1]: 2.6
- stability of water solution [2]: poor

Molecule: O=C(O)[C@H](O)[C@@H](O)[C@H](O)[C@H](O)CO [gluconic acid]
- pH of 1 wt % solution in water [1]: 2.5

Molecule: NC(=O)c1cccnc1 [niacinamide]
- pH of 1 wt % solution in water [1]: 6.3
- stability of water solution [2]: good

Molecule: Copper ATP [Cu-ATP Solution]
- color reading "L" ([4]; 1 Week): 51.35
- color reading "a" ([4]; 1 Week): −35.38
- color reading "b" ([4]; 1 Week): −5.16
- color reading "L" ([4]; 4 Weeks): 50.54
- color reading "a" ([4]; 4 Weeks): −36.08
- color reading "b" ([4]; 4 Weeks): −5.56
- color reading "L" ([4]; Initial): 53.52
- color reading "a" ([4]; Initial): −33.58
- color reading "b" ([4]; Initial): −4.19
